# In patent publication US20250340591A1, “COMPOSITION FOR PREVENTING OR TREATING INFLAMMATORY BOWEL DISEASE CONTAINING NOVEL COMPOUND” (ANYGEN CO., LTD., priority 2021, published 2025):
# How the values were obtained:
# [1] = system: HT-29 cells; experiment: cell proliferation of HT-29 intestinal epithelial cells (Cellvia kit, BrdU kit); format: cell-based; conditions: different concentrations, 24, 48 and 72 hours, FIG. 75
# Protocol: It is known from studies using GPR39 deficient mice that GPR39 is involved in the growth and differentiation of intestinal tissue cells (Phil. Trans. R. Soc. B., 2016, 371:20150420). Therefore, in order to confirm the effect of HKFY-34 on the growth of intestinal tissue cells, the degree of cell proliferation by HKFY-34 was measured using HT-29 cells (Korea Cell Line Bank), which are intestinal epithelial cells.
# Specifically, HT-29 cells were cultured in a 96 well plate and then treated with HKFY-34 at different concentrations for 24, 48, and 72 hours. The cell proliferation of the cultured cells was measured using a Cellvia kit (AB frontier) and a BrdU cell proliferation kit (abcam).
# [2] = target: T1, GPR39 (Homo sapiens, UniProt O43194); experiment: luciferase assay system (SRE luciferase reporter gene, CV-1 cells expressing GPR39); format: cell-based; design: expressed in transfected cells; host or cells: CV-1 fibroblast cell line (Korea Cell Line Bank), adenoviral transduction at 50 MOI
# T1 sequence (O43194 1-453): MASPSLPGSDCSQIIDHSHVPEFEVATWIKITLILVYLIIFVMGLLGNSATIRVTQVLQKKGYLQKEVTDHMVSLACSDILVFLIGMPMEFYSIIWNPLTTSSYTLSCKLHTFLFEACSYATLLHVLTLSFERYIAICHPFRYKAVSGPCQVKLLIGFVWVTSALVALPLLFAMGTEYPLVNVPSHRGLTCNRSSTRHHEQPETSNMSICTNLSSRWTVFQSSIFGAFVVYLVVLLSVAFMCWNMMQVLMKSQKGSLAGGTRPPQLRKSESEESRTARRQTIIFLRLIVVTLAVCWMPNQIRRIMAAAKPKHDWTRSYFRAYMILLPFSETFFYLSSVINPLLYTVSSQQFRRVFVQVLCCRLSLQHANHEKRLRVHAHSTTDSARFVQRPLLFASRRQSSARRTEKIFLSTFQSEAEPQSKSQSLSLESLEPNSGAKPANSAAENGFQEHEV
# [3] = system: ulcerative colitis-induced GPR39 deficient mice (Gpr39−/−); experiment: DSS-induced ulcerative colitis in GPR39 deficient mice; format: in vivo
# Protocol: In order to confirm the effect of HKFY-34 in an inflammatory bowel disease model using GPR39 as a target substance, a disease model of ulcerative colitis was prepared using GPR39 deficient mice (GPR39 knock out (KO), Gpr39^−/−). At this time, wild type mice born from a litter were set as a control group for each treated group of GPR39 deficient mice.
# Specifically, an animal model of ulcerative colitis was prepared by feeding GPR39 deficient mice (Lexicon pharmaceuticals) and wild type mice with water containing 3% DSS in the same manner as in Experimental Example 7. GPR39 KO mice fed with only DSS (vehicle+3% DSS) were set as a negative control group, and GPR39 KO mice administered with HKFY-34 (10 mg/kg) (HKFY-34 10 mg/kg+3% DSS) were set as a test group. Intraperitoneal administration was performed once a day for 5 days.
# [4] = system: HT-29 cells; experiment: calcium ion concentration in HT-29 cells (Fluo-8); format: cell-based; conditions: 10 uM, vs untreated group (vehicle), FIG. 76
# Protocol: It is known from studies using GPR39 deficient mice that calcium signaling is involved in the growth of intestinal tissue cells by GPR39 (Phil. Trans. R. Soc. B. 2016, 371:20150420). Therefore, it was confirmed whether calcium signaling is involved in the cell growth promoted by HKFY-34.
# Specifically, HT-29 cells were cultured in a 96-well black culture plate and then treated with HKFY-34, and the calcium ion concentration in the cells was measured using a Fluo-8 Direct™ calcium assay kit (Thermo Fisher Scientific). As a result, the calcium ion concentration in HT-29 cells was increased by HKFY-34 compared to the untreated group (vehicle) (FIG. 76).
# [5] = system: HT-29 cells; experiment: tight junction factor (ZO-1, occludin) expression in HT-29 cells, qPCR and Western blot; format: cell-based; conditions: HT-29, different concentrations, vs vehicle
# Protocol: It is known that GPR39 is involved in the protection of the gastrointestinal tract (Phil. Trans. R. Soc. B., 2016, 371:20150420). Therefore, in order to confirm the effect of HKFY-34 on the gastrointestinal tract protective function by GPR39, the promoting activity of HKFY-34 on tight junction was evaluated using HT-29 cells, which are important for intestinal tissue formation.
# Specifically, the HT-29 cells were treated with HKFY-34 at different concentrations, and then the expression levels of mRNA (FIG. 77) and protein (FIG. 78) of ZO-1 and occludin, which are important factors of tight junction in intestinal barrier function, were confirmed through quantitative RT-PCR (qPCR) and Western blot.
# [6] = system: C57BL6/J mice with ulcerative colitis induced by DSS; experiment: DSS-induced ulcerative colitis animal model; format: in vivo
# Protocol: Specifically, an animal model of ulcerative colitis among inflammatory bowel diseases was prepared by feeding C57BL6/J mice (Central Lab. Animal Inc.) with water containing 3% DSS (dextran sodium sulfate).
# The untreated (vehicle) mice were set as a control group, the mice fed with only DSS (vehicle+3% DSS) were set as a negative control group, and the mice administered intraperitoneally with SASP (sulfasalazine) at 50 mg/kg after treatment with DSS (SASP 50 mg/kg+3% DSS) were set as a positive control group. As a test group, the mice were intraperitoneally administered with HKFY-34 at 0.1, 1, and 10 mg/kg, respectively. HKFY-34 was administered once a day for 5 days, and during the administration period, the stool condition and body weight loss were measured in the subjects. […]
# [7] = 0.1, 1 and 10 mg/kg intraperitoneal for 5 days, ELISA, vs negative control, FIG. 88
# [8] = 0.1, 1 and 10 mg/kg intraperitoneal for 5 days, qPCR, FIG. 90
# [9] = 0.1, 1 and 10 mg/kg intraperitoneal for 5 days, qPCR, vs negative control, FIG. 87
smiles,measurement,setting,value
"CCCCCCCC(=O)NCCCC[C@H](NC(=O)[C@@H](N)Cc1cn(C(c2ccccc2)c2ccccc2)cn1)C(=O)N[C@H](Cc1ccc(C)cc1)C(=O)N[C@@H](Cc1ccc(O)cc1)C(=O)O [HKFY-34, ((R)-2-((S)-2-((S)-2-amino-3-(1-benzhydryl-1H-imidazol-4-yl)propanamido)-6-octanamidohexanamido)-3-(p-tolyl)propanoyl)-L-tyrosine]",proliferation of HT-29 cells,[1],increased by HKFY-34 in a dose-dependent manner
same,ECmax (−fold induction over basal),[2],22.39 ± 4.59 fold induction over basal
same,Reporter gene assay ECmax (−fold induction over basal),[2],22.39 ± 4.59 fold induction over basal
same,activity level for GPR39 (in words),[2]; comment on Table 3,higher activity level than other HKFY derivatives
same,activity and ECmax value for GPR39 (in words),"[2]; comment on Table 3, derivatives composed of d-Phe(methyl)",most excellent activity and high ECmax value
same,inhibitory effect on the reduction of colon length,"[3]; 10 mg/kg intraperitoneal for 5 days, FIG. 92",not observed
same,effect of reducing inflammatory damage of colon tissue (H&E staining),"[3]; 10 mg/kg intraperitoneal for 5 days, FIG. 95",not observed
same,inhibitory effect on body weight loss,"[3]; 10 mg/kg intraperitoneal once a day for 5 days, 3% DSS, FIG. 91",no inhibitory effect
same,effect of alleviating stool consistency,"[3]; 10 mg/kg intraperitoneal, vs negative control, FIG. 93",not observed
same,effect of alleviating blood in stool,"[3]; 10 mg/kg intraperitoneal, vs negative control, FIG. 94",not observed
same,calcium ion concentration in HT-29 cells,[4],increased
same,protein expression level of ZO-1,"[5]; Western blot, FIG. 78",significantly increased by HKFY-34 in a dose-dependent manner
same,protein expression level of occludin,"[5]; Western blot, FIG. 78",significantly increased by HKFY-34 in a dose-dependent manner
same,mRNA expression level of ZO-1,"[5]; qPCR, FIG. 77",significantly increased by HKFY-34 in a dose-dependent manner
same,mRNA expression level of occludin,"[5]; qPCR, FIG. 77",significantly increased by HKFY-34 in a dose-dependent manner
same,concentration of IL-1β in the blood,[6]; [7],significantly decreased
same,concentration of TNF-α in the blood,[6]; [7],significantly decreased
same,mRNA expression level of ZO-1 in colon tissue,[6]; [8],significantly increased by HKFY-34 in a dose-dependent manner
same,mRNA expression level of occludin in colon tissue,[6]; [8],significantly increased by HKFY-34 in a dose-dependent manner
same,mRNA expression level of IL-1β in colon tissue,[6]; [9],significantly decreased
same,mRNA expression level of IL-6 in colon tissue,[6]; [9],significantly decreased
same,mRNA expression level of IL-8 in colon tissue,[6]; [9],significantly decreased
same,mRNA expression level of TNF-α in colon tissue,[6]; [9],significantly decreased
same,length contraction of the colon,"[6]; 0.1, 1 and 10 mg/kg intraperitoneal for 5 days, vs negative control (DSS alone), FIG. 84",reduced by HKFY-34 in a dose-dependent manner
same,degree of damage caused by inflammation of the colon tissue (H&E staining),"[6]; 0.1, 1 and 10 mg/kg intraperitoneal for 5 days, vs negative control, FIG. 89",alleviated
same,body weight loss,"[6]; 0.1, 1 and 10 mg/kg intraperitoneal once a day for 5 days, 3% DSS, FIG. 83",significantly inhibited by HKFY-34 in a dose-dependent manner
same,stool consistency (diarrhea) score,"[6]; 0.1, 1 and 10 mg/kg intraperitoneal, score 0 to 3, FIG. 85",alleviated in a dose-dependent manner
same,blood in stool (fecal bleeding) score,"[6]; 0.1, 1 and 10 mg/kg intraperitoneal, score 0 to 3, FIG. 86",alleviated in a dose-dependent manner
